Experimental data from US20230346744A1, “SULFUR-CONTAINING COMPOUND USEFUL FOR TREATING OR PREVENTING PRESBYOPIA” (SANTEN PHARMACEUTICAL CO., LTD., priority 2020, published 2023).

Columns and labels:
Type in all cases: in vivo
C57BL/6J mice [1] = assay: Reference Pharmacological Test 1: effect of EV06 instillation on lens elasticity; conditions: 3 times per day for 15 to 17 days; for Lens elasticity improvement: 2.5 μL/eye, 8-month-old mice, vs vehicle control
Experimental: The effect of lipoic acid choline ester (EV06) on the lens elasticity was examined. The tests were conducted with reference to the methods described in InvestOphthalmol Vis Sci, 57, 2851-2863, 2016. EV06 is a compound represented by the following formula: A vehicle comprising 0.1% (w/v) of ethyl pyruvate, 0.269% (w/v) of sodium dihydrogenphosphate monohydrate (NaH2PO4.H2O), 0.433% (w/v) of disodium hydrogenphosphate (Na2HPO4), 0.2% (w/v) of hydroxypropyl methylcellulose, 0.5% (w/v) of NaCl, and purified water (appropriate amount) was prepared. EVO6 was sonicated with the addition of the vehicle to prepare a 5% (w/v) suspension. The resulting 5% (w/v) suspension was diluted with the vehicle to prepare a 1.5% (w/v) solution. Further, the resulting 1.5% (w/v) solution was diluted with the vehicle to prepare a 0.5% (w/v) solution. The total amount of each sample to be used in one day was prepared before use. 1) Each test sample (2.5 μL/eye) was instilled into the right eye of 8-month-old C57BL/6J mice with a Pipetman 3 times per day (around 9:00, 13:00 and 17:00) for 15 to 17 days. 2) After the final instillation, the mice were euthanized by carbon dioxide inhalation, and then the eyeballs were extracted and rinsed with Hank's balanced salt solution (HBSS). 3) The sclera near the optic nerve was cut with a razor, the lens was removed through the incision, and the removed lens was immersed in HBSS. 4) The lens was placed on a glass slide, and an all-in-one fluorescence microscope BZ-9000 (Keyence) was used to capture an image of the lens (Image a). 5) Next, one cover glass (Corning^(registered trade mark) 22×22 mm Square) was placed on the lens, and an image in which the thickness of the lens changed due to the weight was similarly captured (Image b). 6) A change in the lens diameter was calculated from Equation 1 wherein the lens diameter of Image a is subtracted from the lens diameter of Image b, as described below. Then, the lens elasticity improvement of each sample group compared with the vehicle control group was calculated from Equation 2 described below. The mean of the vehicle control group was based on 6 eyes and the mean of each EV06 sample group was based on 12 eyes. Change in lens diameter=Lens diameter in Image b of each test sample−Lens diameter in Image a of each test sample Equation 1 Lens elasticity improvement of each sample group=Mean change in lens diameter of each EV06 sample group−Mean change in lens diameter of Vehicle control group equation 2

C57BL/6J mice [2] = assay: Pharmacological Test-1: 3 times-daily instillation for 2 weeks, lens elasticity; conditions: 3 times per day for 14 days; for Lens elasticity improvement: 0.03% (w/v) sample, 2.5 μL/eye, 9-month-old mice, vs vehicle control; for Lens elasticity effect compared with the vehicle control group (in words): 0.03% sample group
Experimental: The effect of 3 times-daily instillation of Compound 1 for 2 weeks on the lens elasticity was examined. The tests were conducted with reference to the methods described in InvestOphthalmol Vis Sci, 57, 2851-2863, 2016.
A vehicle comprising 1.0% (w/v) of polyoxyl 35 castor oil (hereinafter also referred to as “CO35”), 0.1% (w/v) of ethyl pyruvate, 0.269% (w/v) of sodium dihydrogenphosphate monohydrate (NaH2 PO4.H2O), 0.433% (w/v) of disodium hydrogenphosphate (Na2 HPO4), 0.2% (w/v) of hydroxypropyl methylcellulose, 0.5% (w/v) of NaCl, and purified water (appropriate amount) was prepared.
Compound 1 was stirred with the addition of the vehicle to give a 0.03% (w/v) solution. After preparation, it was refrigerated.
EVO6 was stirred with the addition of the vehicle to give a 0.03% (w/v) solution, which was for comparison in the test for Compound 1. After preparation, it was refrigerated.
1) Each test sample (2.5 μL/eye) was instilled into both eyes of 9-month-old C57BL/6J mice with a Pipetman 3 times per day (around 9:00, 13:00 and 17:00) for 14 days.
(§1) 2) After the final instillation, the mice were euthanized by carbon dioxide inhalation, and then the eyeballs were extracted and rinsed with Hank's balanced salt solution (HBSS).
(§2) 3) The sclera near the optic nerve was cut with a razor, the lens was removed through the incision, and the removed lens was immersed in HBSS.
(§3) 4) The lens was placed on a glass slide, and an all-in-one fluorescence microscope BZ-9000 (Keyence) was used to capture an image of the lens (Image a).
(§4) 5) Next, one cover glass (Corning(registered trade mark) 22×22 mm Square) was placed on the lens, and an image in which the thickness of the lens changed due to the weight was similarly captured (Image b).
(§5) 6) A change in the lens diameter was calculated from the following Equation 1 wherein the lens diameter of Image a is subtracted from the lens diameter of Image b. Then, the lens elasticity improvement of each sample group compared with the vehicle control group was calculated from Equation 2 described below. The mean value of the vehicle control group was based on 8 eyes, and the mean value of each of the sample groups of Compound 1 and EVO6 was based on 10 eyes.
(§6) Change in lens diameter=Lens diameter in Image b of each test sample−Lens diameter in Image a of each test sample Equation 1
(§7) Lens elasticity improvement of each sample group=Mean change in lens diameter of each Test sample group−Mean change in lens diameter of Vehicle control group Equation 2

C57BL/6J mice [3] = assay: Pharmacological Test-5: once-daily instillation of Compounds 5, 6 and 7 for 2 weeks, lens elasticity; conditions: once per day for 14 days
Experimental: The effect of once-daily instillation of each of Compounds 5, 6, and 7 for 2 weeks on the lens elasticity was examined.
(§8) A vehicle comprising 1.0% (w/v) of CO35, 0.1% (w/v) of ethyl pyruvate, 0.269% (w/v) of sodium dihydrogenphosphate monohydrate (NaH2 PO4.H2O), 0.433% (w/v) of disodium hydrogenphosphate (Na2HPO4), 0.2% (w/v) of hydroxypropyl methylcellulose, 0.5% (w/v) of NaCl, and purified water (appropriate amount) was prepared.
Compound 5 was stirred with the addition of the vehicle to give a 0.1% (w/v) suspension. The resulting 0.1% (w/v) suspension was diluted with the vehicle to give a 0.03% (w/v) suspension.
Compound 6 was stirred with the addition of the vehicle to give a 0.1% (w/v) suspension. The resulting 0.1% (w/v) a suspension was diluted with the vehicle to give a 0.03% (w/v) suspension.
Compound 7 was stirred with the addition of the vehicle to give a 0.1% (w/v) suspension.
After preparation, all were refrigerated.
EVO6 was stirred with the addition of the vehicle to give a 0.03% (w/v) solution, which was for comparison in the test for Compounds 5, 6 and 7. After preparation, it was refrigerated.
1) Each test sample (2.5 μL/eye) was instilled into both eyes of 8-month-old C57BL/6J mice with a Pipetman once per day (around 13:30) for 14 days.
as §1, §2, §3, §4
(§9) 6) A change in the lens diameter was calculated from Equation 1 wherein the lens diameter of Image a is subtracted from the lens diameter of Image b, as described below. Then, the lens elasticity improvement of each sample group compared with the vehicle control group was calculated from Equation 2 described below. The mean value of each group was based on 8 eyes.
as §6, §7

C57BL/6J mice [4] = assay: Pharmacological Test-2: once-daily instillation of Compound 1 for 2 weeks, lens elasticity; conditions: once per day for 14 days; for Lens elasticity improvement: 2.5 μL/eye, 9-month-old mice, vs vehicle control
Experimental: The effect of once-daily instillation of Compound 1 for 2 weeks on the lens elasticity was examined.
as §8
To Compound 1 was added the vehicle to give a 0.1% (w/v) solution. The resulting 0.1% (w/v) solution was diluted with the vehicle to give a 0.03% (w/v) solution. Further, the resulting 0.03% (w/v) solution was diluted with the vehicle to give a 0.01% (w/v) solution. After preparation, all were frozen.
1) Each test sample (2.5 μL/eye) was instilled into both eyes of 9-month-old C57BL/6J mice with a Pipetman once per day (around 9:00) for 14 days.
as §1, §2, §3, §4
as §5, with “from” for “from the following”, “b, as described below.” for “b.”, “9” for “8”, “1” for “1 and EVO6”
as §6, §7

Japanese White rabbit = assay: Ocular irritation test-1 (McDonald-Shadduck method); parameters: key to Irritation Score of anterior segment of the eye: Discharge / Irritation Score of anterior segment of the eye: Anterior chamber flare / Irritation Score of anterior segment of the eye: Light reflex / Irritation Score of anterior segment of the eye: Iris / Irritation Score of anterior segment of the eye: Corneal opacity / Irritation Score of anterior segment of the eye: Corneal angiogenesis / Irritation Score of anterior segment of the eye: Corneal epithelial disorder / Irritation Score of anterior segment of the eye: Conjunctival hyperemia / Irritation Score of anterior segment of the eye: Conjunctival edema: —: No noteworthy findings; conditions: 50 μL/eye, 10 times at 30-minute intervals
Experimental: A vehicle eye drop and a 0.03% (w/v) Compound 1 eye drop were prepared in the same manner as Preparation of Test sample in Pharmacological test-1.
The vehicle eye drop, and the 0.03% (w/v) Compound 1 eye drop were each instilled into one eye of a Japanese White rabbit at a dose volume of 50 μL/eye with pipette 10 times at 30-minute intervals. One hour after the final instillation, ocular irritation of anterior segment of the eye was evaluated using a slit lamp according to the McDonald-Shadduck method.
Observation for corneal epithelial disorder was conducted 3 hours after the final instillation.
The ocular irritation of anterior segment of the eye was scored according to the following criteria: • 1: slight; +2: moderate; +3: severe

C57BL/6J mice [5] = assay: Pharmacological Test-3: once-daily instillation of Compounds 1, 2 and 3 for 2 weeks, lens elasticity; conditions: 0.03% sample, 2.5 μL/eye, once per day for 14 days, 8-month-old mice, vs vehicle control
Experimental: The effect of once-daily instillation of each of Compounds 1, 2 and 3 for 2 weeks on the lens elasticity was examined.
as §8
Each of Compounds 1 and 2 was stirred with the addition of the vehicle to give a 0.1% (w/v) solution.
To Compound 3 was added the vehicle to give a 0.1% (w/v) suspension. The resulting 0.1% (w/v) suspension was diluted with the vehicle to give a 0.03% (w/v) solution. Further, the resulting 0.03% (w/v) solution was diluted with the vehicle to give a 0.01% (w/v) solution.
After preparation, all were frozen.
1) Each test sample (2.5 μL/eye) was instilled into both eyes of 8-month-old C57BL/6J mice with a Pipetman once per day (around 9:00) for 14 days.
as §1, §2, §3, §4
as §9, with “10” for “8”
as §6, §7

[6] = 0.03% eye drop, 1 hour after the final instillation

C[N+](C)(C)CCOC(=O)CCCC[C@@H]1CCSS1.[Cl-] [EV06, lipoic acid choline ester, reference compound]
Lens elasticity improvement (C57BL/6J mice [1]; 0.5% (w/v) sample): 28.8 μm
Lens elasticity effect compared with the vehicle control group (in words) (C57BL/6J mice [1]; 0.5%, 1.5% and 5% groups): elasticity improving effect
Lens elasticity improvement (C57BL/6J mice [1]; 1.5% (w/v) sample): 47.3 μm
Lens elasticity improvement (C57BL/6J mice [1]; 5% (w/v) sample): 48.7 μm
Lens elasticity improvement (C57BL/6J mice [2]): 3.6 μm
Lens elasticity effect compared with the vehicle control group (in words) (C57BL/6J mice [2]): no improvement in lens elasticity
Lens elasticity effect (in words) (C57BL/6J mice [3]; 0.03% sample group): no elasticity improving effect
Lens elasticity improvement (C57BL/6J mice [3]; 0.03% sample, 2.5 μL/eye, 8-month-old mice, vs vehicle control): 3.1 μm

OCCCCC[C@@H](S)CCS [Compound 1, (R)-6,8-Dimercaptooctan-1-ol]
Lens elasticity improvement (C57BL/6J mice [2]): 53.8 μm
Lens elasticity effect compared with the vehicle control group (in words) (C57BL/6J mice [2]): potent elasticity improving effect
Lens elasticity improvement (C57BL/6J mice [4]; 0.01% (w/v) sample): 17.5 μm
Lens elasticity improvement (C57BL/6J mice [4]; 0.03% (w/v) sample): 53.0 μm
Lens elasticity improvement (C57BL/6J mice [4]; 0.1% (w/v) sample): 63.3 μm
Lens elasticity effect (in words) (C57BL/6J mice [4]; all of the concentrations of 0.01%, 0.03% and 0.1%): showed an elasticity improving effect
Irritation in anterior segment of the eye (in words) (Japanese White rabbit; 0.03% (w/v) eye drop): No irritation was observed
Irritation Score of anterior segment of the eye: Anterior chamber flare (Japanese White rabbit; [6]): —
Irritation Score of anterior segment of the eye: Conjunctival edema (Japanese White rabbit; [6]): —
Irritation Score of anterior segment of the eye: Corneal angiogenesis (Japanese White rabbit; [6]): —
Irritation Score of anterior segment of the eye: Corneal opacity (Japanese White rabbit; [6]): —
Irritation Score of anterior segment of the eye: Discharge (Japanese White rabbit; [6]): —
Irritation Score of anterior segment of the eye: Iris (Japanese White rabbit; [6]): —
Irritation Score of anterior segment of the eye: Light reflex (Japanese White rabbit; [6]): —
Irritation Score of anterior segment of the eye: Conjunctival hyperemia (Japanese White rabbit; 0.03% eye drop, 1 hour after the final instillation, scale +1 slight, +2 moderate, +3 severe): —
Irritation Score of anterior segment of the eye: Corneal epithelial disorder (Japanese White rabbit; 0.03% eye drop, 3 hours after the final instillation): —
Lens elasticity improvement (C57BL/6J mice [5]): 55.5 μm
